Two compounds from EP0377489A2, “Purified C5a receptor from human polymorphonuclear leukocytes” (MERCK & CO. INC., priority 1989, dated 1990) can be followed below.

The test system of one data set is solubilized C5a receptor. The experiment in a line: Inhibition of C5a binding to solubilized or purified receptor by nucleotides. Set-up: species or system human.
Data set [1] deals with C5a receptor from PMN membranes. The experiment in a line: Release of binding sites from the membrane: total binding activity of detergent extracts at saturation compared with intact membrane. The arrangement: species or system human. How it is done: In additional experiments (results not shown) the ability of digitonin and β-dodecyl maltoside to release binding sites from the membrane was determined by comparing the total binding activity of the extracts, at saturation, with that of an equivalent amount of intact membrane. In the two experiments in which a direct comparison was made the efficiencies of the detergents appeared to be similar, both solubilized 30-35% of the receptors initially present in the membrane. However, over the course of the work we did observe variability from experiment to experiment and it is our impression that, on average, digitonin was more efficient than β-dodecyl maltoside (for an example, see Table I).

Procedure for solubilized C5a receptor: -All assays, except where noted, were performed at 4°C, with freshly thawed membranes or freshly prepared soluble receptor. To assay intact membranes, assay buffer (50 mM HEPES, pH 7.2, containing 1 mM CaCl₂, 5 mM MgCl₂, 0.1 mM PMSF, 0.1% bacitracin, and 0.5% bovine serum albumin), ¹²⁵I-C5a (typically 0.1 ng), and membrane (typically 0.5 µg) were added sequentially to a final volume of 200 µl. After incubation for 60-90 minutes 2 ml of assay buffer was added, the solution mixed, and the sample filtered through either a Whatman® GF/C filter treated with 0.33% polyethyleneimine or an untreated Millipore®GVWP filter. […] The filters were then counted in a Packard 460 γ-counter. Nonspecific backgrounds were determined by including 20 ng or more of unlabled C5a in the incubation mixture. To assay soluble receptor, assay buffer, solubilized membrane (typically 5 µl) and ¹²⁵I-C5a were mixed to a final volume of 200 µl and incubated for 15-30 minutes, at which time 500 µl of 0.1% bovine γ-globulin and 500 µl of 30% polyethylene glycol were added sequentially with vigorous mixing. After an additional 5 minutes, the sample was filtered and washed with 2 ml of a 9% PEG solution. (Precipitation is essentially complete in less than one minute and the precipitated receptor-­ligand complex is stable for more than 30 minutes.)
As shown in Figure 5 membranes were solubilized in digitonin and assayed for binding activity in the presence of increasing amounts of GTPγS.

Consider `Nc1nc2c(ncn2[C@@H]2O[C@H](COP(=O)(O)OP(=O)(O)OP(O)(O)=S)[C@@H](O)[C@H]2O)c(=O)[nH]1` [GTPγS], for which, in the data set with solubilized C5a receptor (digitonin solubilized membranes), the “maximum inhibition of C5a binding” value worked out at 85%. The IC50 at solubilized C5a receptor (inhibition of C5a binding, digitonin solubilized membranes, read-out: IC₅₀) amounted to 10 nM. Also, the “inhibition of binding of C5a to the purified receptor” value with solubilized C5a receptor (purified receptor, 3 different preparations) is 27-50%.
Take `CCCCCCCCCCCCO[C@@H]1O[C@H](CO)[C@@H](O[C@H]2O[C@H](CO)[C@@H](O)[C@H](O)[C@H]2O)[C@H](O)[C@H]1O` [β-Dodecyl maltoside]: the “receptors initially present in the membrane solubilized” value in data set [1] is recorded as 30-35%.
